From ChEMBL document CHEMBL1140551, “N-Benzyl-3-sulfonamidopyrrolidines as novel inhibitors of cell division in E. coli” (2007)
In brackets after ≈: the same amount, converted by molar mass. Activity calls are given as the source filed them. The rule behind the calls is not given here.

Key:
Escherichia coli [1] = assay: Inhibition of GTPase activity of Escherichia coli FtsZ at 100 uM
Escherichia coli [2] = assay: Antimicrobial activity against AcrAB efflux pump-deficient Escherichia coli DCR39; assay type: functional
Escherichia coli [3] = assay: Induction of filamentation in Escherichia coli DCR39 at 5 uM after 15 hrs; assay type: functional, organism-based

Row | SMILES | inhibition (Escherichia coli [1]) [%] | MIC (Escherichia coli [2]) [µM] | Activity (Escherichia coli [3])
1 | Cc1ccc(F)cc1S(=O)(=O)N[C@@H]1CCN(Cc2ccc(Oc3ccccc3)cc2)C1 | 12.3 | 20 (≈ 8.81 µg/mL) | 
2 | Cc1ccc(F)cc1S(=O)(=O)N[C@@H]1CCN(Cc2ccc(CC(C)C)cc2)C1 | 13.7 | < 10 | 
3 | Cc1ccc(F)cc1S(=O)(=O)N[C@@H]1CCN(Cc2ccc(C(F)(F)F)cc2)C1 | 26.9 | > 80 | 
4 | Cc1ccc(F)cc1S(=O)(=O)N[C@@H]1CCN(Cc2ccc3[nH]ccc3c2)C1 | 24.9 | > 80 | 
5 | Cc1ccc(F)cc1S(=O)(=O)N[C@@H]1CCN(Cc2ccc3c(c2)OCO3)C1 | 14.6 | > 80 | 
6 | Cc1ccc(F)cc1S(=O)(=O)N[C@@H]1CCN(Cc2cccc3[nH]ccc23)C1 | 29.9 | > 80 | 
7 | C#Cc1ccc(S(=O)(=O)N[C@@H]2CCN(Cc3ccc(N=[N+]=[N-])cc3)C2)cc1 |  | > 40 | 
8 | Cc1ccc(F)cc1S(=O)(=O)N[C@@H]1CCN(Cc2ccc(Br)cc2)C1 | 31.5 | > 80 | 
9 | CC(C)Cc1ccc(CN2CC[C@@H](NS(=O)(=O)c3cc(Cl)ccc3Cl)C2)cc1 |  | 10 (≈ 4.41 µg/mL) | Active

Now from value to compound, other results behind:

Row | inhibition (Escherichia coli [1]) [%] | MIC (Escherichia coli [2]) [µM] | SMILES | Activity (Escherichia coli [3])
10 | 9.4 | < 10 | Cc1ccc(F)cc1S(=O)(=O)N[C@@H]1CCN(Cc2ccc(-c3ccccc3)cc2)C1 | 
11 |  | < 12 | C#Cc1ccc(S(=O)(=O)N[C@@H]2CCN(Cc3ccc(CC(C)C)cc3)C2)cc1 | 
12 |  | > 64 | C#Cc1ccc(S(=O)(=O)N[C@@H]2CCN(Cc3ccc(OC(C)C)c(N=[N+]=[N-])c3)C2)cc1 | 
13 |  | > 80 | Cc1ccc(F)cc1S(=O)(=O)N[C@@H]1CCN(Cc2ccc(C(=O)c3ccccc3)cc2)C1 | 
14 |  | 20 (≈ 9.39 µg/mL) | CC(C)Cc1ccc(CN2CCC[C@@H](CNS(=O)(=O)c3cc(Cl)ccc3Cl)C2)cc1 | 
15 | 31.9 | > 80 | Cc1ccc(F)cc1S(=O)(=O)N[C@@H]1CCN(C(=O)c2ccc(OC(C)C)cc2)C1 | 
